# Assay results as given in patent publication US20210147481A1, “PEPTIDE-BASED INHIBITORS OF MARK FAMILY PROTEINS” (Ohio Universtiy, priority 2017, published 2021).
# Peptide text beside a SMILES is read from it.
# Experiments:
# [1] = In vitro peptide stability in neurobasal (NB) media (RP-HPLC); format: in vitro ADME; conditions: 37° C., up to 24 hours
# Experimental: Stock peptide solutions for use in stability assays were prepared by dissolving tR1 to a final concentration of 5 mg/mL in dimethyl sulfoxide (DMSO). For stability tests, 2 μL of stock tR1 peptides were added to 198 μL pre-warmed RPMI medium supplemented with 25% (v/v) heat-inactivated human AB serum or neurobasal (NB) media at a final concentration of 50 μg/mL. Each reaction was subsequently incubated at 37° C. for the indicated times. Following incubation, 400 μL aqueous trichloroacetic acid (15%, w/v) was added to each reaction and the samples were immediately cooled on ice for 15 minutes. The samples were then centrifuged 3× at 14,000 rpm to remove precipitated proteins. […] The background signal was subtracted from each respective spectrum and the fraction of intact peptide was quantified from product peak integration normalized to undigested controls. […]
# A major limitation to the therapeutic efficacy of peptides is their susceptibility to proteolytic degradation. Indeed, short peptides generally have a serum half-life measured in minutes. The in vitro stability of tR1 peptides in the presence of proteolytic enzymes was determined. […] Following the incubation, the reactions were quenched using haloacetic acids and the extent of degradation was quantified by analytical HPLC.
# MARK2 = MARK2 (Homo sapiens, UniProt Q7KZI7); test: Validation of tR1 as a substrate for MARK2 (western blot, α-pTau Ser262); format: biochemical; conditions: ATP, 60 minutes at 32° C.
# Description: Once an otherwise competent kinase-substrate pair was developed for a working phosphorylation assay, tR1 was validated as a substrate for MARK2. The tR1 peptide (NVKSKIGSTENLK [SEQ ID NO: 1]) was synthesized using standard Fmoc-based solid-phase synthesis procedures and the final sequence was either acylated (tR1) or labeled with 5-carboxyfluorescein (tR1) on its N-terminus (FIG. 6A). See the experimental procedures, below, for details on the synthesis, labeling, purification and characterization of tR1 peptides. To evaluate whether tR1 is recognized as a substrate by MARK2, MARK2 was incubated with ATP in the presence of varying concentrations of tR1 peptide for 60 minutes at 32° C. in phosphorylation buffer. Following incubation, phosphorylated tR1 peptides were separated by SDS-PAGE and identified by Western blot using antibodies specific for hTau pSer262 (FIG. 6B). Western blot analysis confirmed tR1 as a substrate of MARK2 by the presence of a sharp band at the highest concentration (100 μM).
# Phosphorylation assays were performed in 30 μL phosphorylation buffer (50 mM Tris-HCl, 5 mM MgCl2, 2 mM EGTA, 0.5 mM DTT, 0.5 mM benzamidine HCl, 0.5 mM PMSF, pH 8.0) and depending on the experimental conditions. […] Images were acquired by a Bio-Rad Gel Doc EZ imager and the band intensity was quantified using Image Lab Software c5.2.1 (Bio-Rad).
# Sequence of MARK2 (Q7KZI7 whole entry): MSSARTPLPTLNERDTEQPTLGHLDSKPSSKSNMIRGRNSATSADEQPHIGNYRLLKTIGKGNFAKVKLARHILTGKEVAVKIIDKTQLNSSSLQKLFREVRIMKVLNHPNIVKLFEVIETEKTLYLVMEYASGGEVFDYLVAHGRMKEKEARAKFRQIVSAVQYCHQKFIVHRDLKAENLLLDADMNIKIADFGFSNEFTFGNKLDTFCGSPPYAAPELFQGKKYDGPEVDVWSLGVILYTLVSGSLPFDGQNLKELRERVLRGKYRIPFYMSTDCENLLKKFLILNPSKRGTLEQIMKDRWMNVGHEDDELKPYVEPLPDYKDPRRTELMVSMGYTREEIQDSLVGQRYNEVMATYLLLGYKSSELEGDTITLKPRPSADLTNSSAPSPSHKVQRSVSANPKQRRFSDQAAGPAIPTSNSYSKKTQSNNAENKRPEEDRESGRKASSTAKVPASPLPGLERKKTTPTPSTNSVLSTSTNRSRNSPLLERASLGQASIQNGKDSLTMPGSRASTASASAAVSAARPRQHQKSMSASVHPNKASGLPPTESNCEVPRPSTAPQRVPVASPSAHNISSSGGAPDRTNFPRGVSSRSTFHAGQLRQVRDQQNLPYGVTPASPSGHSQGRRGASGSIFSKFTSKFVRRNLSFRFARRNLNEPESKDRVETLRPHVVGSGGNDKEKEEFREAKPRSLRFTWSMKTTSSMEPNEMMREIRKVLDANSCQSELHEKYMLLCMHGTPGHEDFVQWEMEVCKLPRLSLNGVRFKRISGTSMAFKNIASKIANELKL
smiles,measurement,setting,value
"CC[C@H](C)[C@H](NC(=O)[C@H](CCCCN)NC(=O)[C@H](CO)NC(=O)[C@H](CCCCN)NC(=O)[C@@H](NC(=O)[C@H](CC(N)=O)NC(C)=O)C(C)C)C(=O)NCC(=O)N[C@@H](CO)C(=O)N[C@H](C(=O)N[C@@H](CCC(=O)O)C(=O)N[C@@H](CC(N)=O)C(=O)N[C@@H](CC(C)C)C(=O)N[C@@H](CCCCN)C(N)=O)[C@@H](C)O [tR1, NVKSKIGSTENLK] (Ac-NVKSKIGSTENLK-NH2)",fraction of intact tR1 (stable),[1],> 90%
same,"remaining at 24 h, 50 μg/mL","[1]; neurobasal (NB) media, read-out: fraction of intact tR1 (stable)",> 90%
same,phosphorylation of tR1 by MARK2 (western blot),"MARK2; 0, 1, or 10 μM peptide",Phosphorylation was not seen
same,phosphorylation of tR1 by MARK2 (western blot),MARK2; 100 μM peptide,sharp band
